# Patent US20130064815A1, “INDUCING APOPTOSIS IN QUIESCENT CELLS” (THE TRUSTEES OF PRINCETON UNIVERSITY, priority 2011, published 2013)
# Entries after “also recorded” stand apart in the source; their conditions may differ.
# What was measured:
# [1] = system: primary human fibroblasts; assay: caspase 3/7 activity apoptosis assay (ApoTox-Glo) in proliferating and quiescent fibroblasts; format: cell-based; details: for apoptosis-inducing effect (caspase-3/7 activity normalized to vehicle): four days treatment
# Experimental: Referring to FIG. 2A, primary human fibroblasts were tested either in a proliferating state or after being induced into quiescence. Quiescence may be induced by either contact inhibition or serum starvation. Cells were treated with DHEA for four days, with bafilomycin added on the fourth day. Apoptosis was assessed based on the activity of caspase 3/7 for a fluorogenic substrate.
# PPP inhibition and apoptosis analysis: Apoptosis was measured based on the levels of caspase 3/7 released into the media using the ApoTox-Glo Triplex Assay according to the manufacturer's instructions (Promega Corp., Madison, Wis.). Cells were plated in triplicate at 10,000 cells per well in white-walled, clear-bottom 96-well plates (Costar, Corning Life Sciences, Lowell, Mass.). For contact inhibition, cells were plated 7 days prior to the start of treatment, for serum starvation cells were plated 4 days prior to treatment and switched to 0.1% serum media for the remaining 3 days, while proliferating cells were plated the day prior to the start of treatment. […] Cells in serum starvation conditions were incubated in 0.1% serum during treatment as well. The apoptosis reagent was added at 100 μl per well and incubated for 1 h prior to reading. Luminescence was read from the top using a Synergy-2 plate reader (Biotek, Winooski, Vt.). Luminescence data were normalized to the vehicle only condition.
# Apoptosis induction was assessed by monitoring caspase 3/7 activity using a luminescent caspase substrate. This assay is optimized for high-throughput screening in 96-well plates and allows multiple concentrations and combination of drugs to be tested in triplicate at different time points. […] Therefore, this assay was used to compare proliferating and serum-starved cells only.
# [2] = system: intracellular reduced glutathione; assay: intracellular reduced glutathione by monochlorobimane flow cytometry; format: cell-based, human; details: serum-starved fibroblasts after DHEA treatment
# Experimental: It was tested whether the increase in glutathione reductase activity in serum-starved fibroblasts was associated with elevated levels of reduced glutathione. 7 dSS fibroblasts were focused on because they had the highest activity of the four enzymes in the NADPH production pathway. Flow cytometry was used to monitor the levels of glutathione in proliferating and 7 dSS fibroblasts with monochlorobimane (MCB), a compound that forms blue fluorescent adducts when it reacts with intracellular reduced glutathione (Sebastia et al., “Evaluation of fluorescent dyes for measuring intracellular glutathione content in primary cultures of human neurons and beuroblastoma SH-SY5Y, Cytometry A 51, 16-25, 2003, which is incorporated herein by reference as if fully set forth). […] The results are consistent with a model in which the NADPH production program activated in the serum-starved fibroblasts contributes to a larger pool of reduced glutathione.
# It was expected that the reduction in NADPH levels that resulted from DHEA treatment would result in lower activity of glutathione reductase and thus a decrease in the levels of reduced glutathione. […] The depletion of glutathione in response to DHEA could be an important part of the apoptotic pathway. […]
# oxidized proteins = assay: oxidized (carbonylated) protein immunoblot after DNP derivatization; format: cell-based, human; details: DHEA treatment
# Source text: Glutathione plays an important role in ROS scavenging, both by acting as a cofactor for glutathione peroxidase and via direct interaction with ROS (Jones et al., “Kinetics of superoxide scavenging by glutathione: an evaluation of its role in the removal of mitochrondrial superoxide, Biochem Soc Trans 31, 1337-1339, 2003, which is incorporated herein by reference as if fully set forth). The effects of DHEA treatment on the levels of oxidized proteins were monitored in proliferating and 7 dSS fibroblasts (FIG. 20). Oxidized, carbonylated proteins were derivatized with […] and monitored with an anti-2,4, dinitrophenol antibody. […] Thus, the 7 dSS fibroblasts rely on DHEA-sensitive pathways to maintain low levels of oxidized protein.
# In addition to its role in providing amino acids and energy under starvation conditions, autophagy is involved in maintenance of cellular homeostasis and resistance to tumorigenesis through degradation of old or damaged proteins and entire organelles. […] To monitor the extent of protein oxidation in proliferating and contact-inhibited fibroblasts, the protein carbonyl groups were derivatized using 2,4-dinitrophenylhydrazine (DNP), and monitored using immunoblotting with an antibody that recognizes the covalently added DNP. […]
# tumor cells = details: intraperitoneal injection of tumor cells; cited from earlier work
# [3] = system: skin papillomas and carcinomas; details: topical 7,12-dimethylbenz(a)anthracene (DMBA), mice; cited from earlier work
# [4] = system: spontaneous breast cancer; details: long-term treatment; female C3H (Avy/a) mice; cited from earlier work
# [5] = system: neoplasms, lymphoblastic lymphoma; details: p53-deficient mouse; cited from earlier work
# thyroid tumors = details: F344 rats treated with DHPN, then DHEA; cited from earlier work
smiles,measurement,setting,value
"C[C@]12CC[C@H](O)CC1=CC[C@@H]1[C@@H]2CC[C@]2(C)C(=O)CC[C@@H]12 [DHEA, dehydroepiandrosterone]",apoptosis-inducing effect (caspase-3/7 activity normalized to vehicle),[1]; fibroblasts confluent 11 days (CI11) vs proliferating,significantly stronger; also recorded: statistically significantly different at all doses except 100 μM
same,apoptosis-inducing effect (caspase-3/7 activity normalized to vehicle),[1]; fibroblasts serum-starved seven days (SS7) vs proliferating,yet stronger; also recorded: particularly sensitive; also recorded: statistically significantly different at all doses
same,caspase induction,[1]; treatment with DHEA alone,6- to 8 fold
same,intracellular GSH pools,[2],smaller pools of intracellular GSH
same,oxidized protein levels,oxidized proteins; 7 dSS fibroblasts,significantly increased
same,oxidized protein levels,oxidized proteins; proliferating fibroblasts,little effect
same,tumor growth,tumor cells,inhibit tumor growth
same,development of skin papillomas and carcinomas,[3],reduced
same,spontaneous breast cancer occurrence,[4],inhibit spontaneous breast cancer occurrence
same,death due to neoplasms,[5],delay death due to neoplasms
same,basophilic hepatocellular foci,thyroid tumors,associated with development of basophilic hepatocellular foci
same,development of thyroid tumors,thyroid tumors,decreased development of thyroid tumors
